Test results from patent US5530126A, “Process for the preparation of substituted 6-(pyrazol-3yl)-1,4-benzoxazin-3-ones” (Monsanto Company, priority 1994, dated 1996).

Columns and labels:
Assay type in all cases: in vivo
[1] = tested on: Velvetleaf; assay: Post-emergence herbicide test; settings: Abutilon theophrasti, read-out: % plant inhibition (Vele); for inhibition at 11210 g/ha: 11.21 kg/ha
Excerpt: (§1) Topsoil is placed in aluminum pans having holes in the bottom and compacted to a depth of 0.95 to 1.27 cm from the top of the pan. A predetermined number of seeds of each of several dicotyledonous and monocotyledonous annual plant species and/or vegetative propagules for the perennial plant species are placed on the soil and pressed into the soil surface. The seeds and/or vegetative propagules are covered with soil and leveled. The pans are then placed on a bench in the greenhouse and watered from below as needed. After the plants reach the desired age (two to three weeks), each pan, is removed individually to a spraying chamber and sprayed by means of an atomizer, operating at a spray pressure of 170.3 kPa (10 psig) at the application rates noted. In the spray solution is an amount of an emulsifying agent mixture to give a spray solution or suspension which contains about 0.4% by volume of the emulsifier. The spray solution or suspension contains a sufficient amount of the candidate chemical in order to give application rates of the active ingredient corresponding to those shown in Tables 8 and 8A, while applying a total amount of solution or suspension equivalent to 1870 L/Ha (200 gallons/acre). The pans were returned to the greenhouse and watered as before and the injury to the plants as compared to the control is observed at approximately 10-14 days (usually 11 days) and in some instances observed again at 24-28 days (usually 25 days) after spraying. The post-emergent herbicidal activity shown in these tables is the percent inhibition of each plant species.

[2] = tested on: Morningglory; assay: Post-emergence herbicide test; settings: Ipomoea, read-out: % plant inhibition (Mogl); for inhibition at 11210 g/ha: 11.21 kg/ha
Excerpt: as §1

[3] = tested on: Downy Brome; assay: Post-emergence herbicide test; settings: Bromus tectorum, read-out: % plant inhibition (Dobr); for inhibition at 11210 g/ha: 11.21 kg/ha
Excerpt: as §1

[4] = tested on: Seedling johnsongrass; assay: Post-emergence herbicide test; settings: Sorghum halepense, read-out: % plant inhibition (Sejg); for inhibition at 11210 g/ha: 11.21 kg/ha
Excerpt: as §1

[5] = tested on: Barnyardgrass; assay: Post-emergence herbicide test; settings: Echinochloa crus-galli, read-out: % plant inhibition (Bygr); for inhibition at 11210 g/ha: 11.21 kg/ha
Excerpt: as §1

[6] = tested on: Annual bluegrass; assay: Post-emergence herbicide test; settings: read-out: % plant inhibition (Anbg); for inhibition at 11210 g/ha: 11.21 kg/ha
Excerpt: as §1

[7] = tested on: Indian Mustard; assay: Post-emergence herbicide test; settings: Brassica juncea, read-out: % plant inhibition (Inmu); for inhibition at 11210 g/ha: 11.21 kg/ha
Excerpt: as §1

[8] = tested on: Yellow nutsedge; assay: Post-emergence herbicide test; settings: Cyperus, read-out: % plant inhibition (Yens); for inhibition at 11210 g/ha: 11.21 kg/ha
Excerpt: as §1

[9] = tested on: Cocklebur; assay: Post-emergence herbicide test; settings: Xanthium strumarium, read-out: % plant inhibition (Cobu); for inhibition at 11210 g/ha: 11.21 kg/ha
Excerpt: as §1

[10] = tested on: Wild buckwheat; assay: Post-emergence herbicide test; settings: Fallopia convolvulus, read-out: % plant inhibition (Wibw); for inhibition at 11210 g/ha: 11.21 kg/ha
Excerpt: as §1

[11] = tested on: Velvetleaf; assay: Pre-emergence herbicide test; settings: Abutilon theophrasti, read-out: % plant inhibition (Vele); for inhibition at 11210 g/ha: 11.21 kg/ha
Method: (§2) The tests for pre-emergence herbicide activity are conducted as follows:
(§3) Topsoil is placed in an aluminum pan and compacted to a depth of 0.95 to 1.27 cm from the top of the pan. On the top of the soil is placed a predetermined number of seeds of each of several monocotyledonous and dicotyledonous annual plant species and/or vegetative propagules of various perennial plant species. A known amount of the active ingredient dissolved or suspended in an organic solvent, e.g., acetone, or water as carrier is then applied directly to the seed bed, which is then covered with a layer of untreated topsoil to level fill the pan. After treatment, the pans are moved to a greenhouse bench where they are watered from below as needed to give adequate moisture for germination and growth.
(§4) Approximately 10-14 days (usually 11 days) after seeding and treating, the pans are observed and the results (% inhibition) are recorded.
(§5) Tables 7 and 7A below summarize the results of the pre-emergence herbicidal activity tests of compounds of this invention in weeds. The herbicidal rating shown in these tables is the percent inhibition of each plant species. The plant species usually regarded as weeds which are utilized in one set of tests, the data for which are shown in the tables, are identified by letter headings above the columns in accordance with the following legend: […]

[12] = tested on: Morningglory; assay: Pre-emergence herbicide test; settings: Ipomoea, read-out: % plant inhibition (Mogl); for inhibition at 11210 g/ha: 11.21 kg/ha
Method: as §2, §3, §4, §5

[13] = tested on: Downy Brome; assay: Pre-emergence herbicide test; settings: Bromus tectorum, read-out: % plant inhibition (Dobr); for inhibition at 11210 g/ha: 11.21 kg/ha
Method: as §2, §3, §4, §5

[14] = tested on: Seedling johnsongrass; assay: Pre-emergence herbicide test; settings: Sorghum halepense, read-out: % plant inhibition (Sejg); for inhibition at 11210 g/ha: 11.21 kg/ha
Method: as §2, §3, §4, §5

[15] = tested on: Barnyardgrass; assay: Pre-emergence herbicide test; settings: Echinochloa crus-galli, read-out: % plant inhibition (Bygr); for inhibition at 11210 g/ha: 11.21 kg/ha
Method: as §2, §3, §4, §5

[16] = tested on: Annual bluegrass; assay: Pre-emergence herbicide test; settings: read-out: % plant inhibition (Anbg); for inhibition at 11210 g/ha: 11.21 kg/ha
Method: as §2, §3, §4, §5

[17] = tested on: Indian Mustard; assay: Pre-emergence herbicide test; settings: Brassica juncea, read-out: % plant inhibition (Inmu); for inhibition at 11210 g/ha: 11.21 kg/ha
Method: as §2, §3, §4, §5

[18] = tested on: Yellow nutsedge; assay: Pre-emergence herbicide test; settings: Cyperus, read-out: % plant inhibition (Yens); for inhibition at 11210 g/ha: 11.21 kg/ha
Method: as §2, §3, §4, §5

[19] = tested on: Cocklebur; assay: Pre-emergence herbicide test; settings: Xanthium strumarium, read-out: % plant inhibition (Cobu); for inhibition at 11210 g/ha: 11.21 kg/ha
Method: as §2, §3, §4, §5

[20] = tested on: Wild buckwheat; assay: Pre-emergence herbicide test; settings: Fallopia convolvulus, read-out: % plant inhibition (Wibw); for inhibition at 11210 g/ha: 11.21 kg/ha
Method: as §2, §3, §4, §5

| SMILES | inhibition at 11210 g/ha [1] [%] | inhibition at 11210 g/ha [2] [%] | inhibition at 11210 g/ha [3] [%] | inhibition at 11210 g/ha [4] [%] | inhibition at 11210 g/ha [5] [%] | inhibition at 11210 g/ha [6] [%] | inhibition at 11210 g/ha [7] [%] | inhibition at 11210 g/ha [8] [%] | inhibition at 11210 g/ha [9] [%] | inhibition at 11210 g/ha [10] [%] | inhibition at 11210 g/ha [11] [%] | inhibition at 11210 g/ha [12] [%] | inhibition at 11210 g/ha [13] [%] | inhibition at 11210 g/ha [14] [%] | inhibition at 11210 g/ha [15] [%] | inhibition at 11210 g/ha [16] [%] | inhibition at 11210 g/ha [17] [%] | inhibition at 11210 g/ha [18] [%] | inhibition at 11210 g/ha [19] [%] | inhibition at 11210 g/ha [20] [%] | also measured |
| --- | --- | --- | --- | --- | --- | --- | --- | --- | --- | --- | --- | --- | --- | --- | --- | --- | --- | --- | --- | --- | --- |
| Cc1cc(-c2c(Cl)c(C(F)F)nn2C)c(F)cc1Cl [Compound 64] | 60 | 60 | 0 | 20 | 30 | 20 | 20 | 0 | 20 | 80 | 100 | 80 | 90 | 80 | 80 | 90 | 100 | 10 | 10 | 100 | – |
| Cn1nc(C(F)(F)F)c(Cl)c1-c1ccc(Cl)cc1 [Compound 66] | 50 | 70 | 30 | 80 | 20 | 0 | 30 | 0 | 0 | 100 | 90 | 100 | 60 | 90 | 10 | 50 | 50 | 0 | 20 | 90 | – |
| Cn1nc(C(F)(F)Cl)c(Cl)c1-c1ccc(Cl)cc1 [Compound 67] | 80 | 70 | 40 | 80 | 40 | 20 | 40 | 20 | 20 | 100 | 80 | 90 | 40 | 40 | 0 | 40 | 50 | 0 | 0 | 90 | – |
| Cn1nc(C(F)(F)F)c(Cl)c1-c1cc(F)ccc1F [Compound 69] | 10 | 10 | 0 | 0 | 0 | 0 | 0 | 0 | 0 | 0 | 50 | 30 | 0 | 0 | 0 | 0 | 0 | 0 | 0 | 0 | – |
| COc1cc(F)c(-c2c(Cl)c(C(F)(F)F)nn2C)cc1F [Compound 71] | 20 | 20 | 0 | 0 | 0 | 0 | 20 | 0 | 30 | 40 | 60 | 30 | 10 | 40 | 0 | 90 | 30 | 0 | 0 | 70 | – |
| COc1cc(-c2c(Cl)c(C(F)(F)F)nn2C)c(F)cc1[N+](=O)[O-] [Compound 72] | 90 | 30 | 20 | 10 | 50 | 10 | 30 | 10 | 60 | 90 | 90 | 40 | 20 | 60 | 60 | 20 | 90 | 0 | 20 | 90 | – |
| COc1cc(-c2c(Cl)c(C(F)(F)F)nn2C)c(F)cc1N [Compound 73] | 20 | 0 | 0 | 0 | 0 | 0 | 20 | 0 | 10 | 20 | 50 | 0 | 0 | 0 | 0 | 0 | 20 | 0 | 0 | 0 | – |
| COc1cc(-c2c(Cl)c(C(F)(F)F)nn2C)c(F)cc1Cl [Compound 74] | – | – | – | – | – | – | – | – | – | – | – | – | – | – | – | – | – | – | – | – | inhibition at 1120 g/ha ([1]; 1.12 kg/ha): 40%; inhibition at 1120 g/ha ([2]; 1.12 kg/ha): 20%; inhibition at 1120 g/ha ([3]; 1.12 kg/ha): 10%; inhibition at 1120 g/ha ([4]; 1.12 kg/ha): 10%; inhibition at 1120 g/ha ([5]; 1.12 kg/ha): 10%; inhibition at 1120 g/ha ([6]; 1.12 kg/ha): 0%; inhibition at 1120 g/ha ([7]; 1.12 kg/ha): 40%; inhibition at 1120 g/ha ([8]; 1.12 kg/ha): 10%; inhibition at 1120 g/ha ([9]; 1.12 kg/ha): 20%; inhibition at 1120 g/ha ([10]; 1.12 kg/ha): 90%; inhibition at 1120 g/ha ([11]; 1.12 kg/ha): 90%; inhibition at 1120 g/ha ([12]; 1.12 kg/ha): 50%; inhibition at 1120 g/ha ([13]; 1.12 kg/ha): 20%; inhibition at 1120 g/ha ([14]; 1.12 kg/ha): 60%; inhibition at 1120 g/ha ([15]; 1.12 kg/ha): 20%; inhibition at 1120 g/ha ([16]; 1.12 kg/ha): 10%; inhibition at 1120 g/ha ([17]; 1.12 kg/ha): 90%; inhibition at 1120 g/ha ([18]; 1.12 kg/ha): 0%; inhibition at 1120 g/ha ([19]; 1.12 kg/ha): 0%; inhibition at 1120 g/ha ([20]; 1.12 kg/ha): 100% |
